Source: patent US20030022889A1, “Method for providing neuro-protective effects” (priority 1997, published 2003)

Tests used:
[1] = biological target: T1, 5-HT1C receptor (Homo sapiens, UniProt P28335); assay: pharmacological studies, 5-HT1C receptor activity
T1 sequence (P28335 33-458): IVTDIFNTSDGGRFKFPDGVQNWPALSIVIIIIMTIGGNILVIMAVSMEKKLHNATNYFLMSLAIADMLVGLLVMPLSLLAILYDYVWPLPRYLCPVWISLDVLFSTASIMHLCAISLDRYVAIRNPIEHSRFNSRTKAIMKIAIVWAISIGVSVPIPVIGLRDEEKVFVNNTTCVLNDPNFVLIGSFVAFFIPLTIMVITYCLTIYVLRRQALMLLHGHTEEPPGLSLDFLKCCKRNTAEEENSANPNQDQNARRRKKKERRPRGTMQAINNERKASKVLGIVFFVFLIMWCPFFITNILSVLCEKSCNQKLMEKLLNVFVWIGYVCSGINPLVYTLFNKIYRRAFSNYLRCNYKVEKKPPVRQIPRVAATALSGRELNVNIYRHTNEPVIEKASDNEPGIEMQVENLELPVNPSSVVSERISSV

[2] = test system: muscarinic cholinergic receptor; assay: pharmacological studies, muscarinic cholinergic receptor activity
[3] = test system: ischemia-induced neuronal cell damage (CA1 pyramidal cell layer of the hippocampus); assay: Cerebral Ischemia Model in Rats; format: in vivo, Male Wistar rats; details: "such experiments"; the sentence does not name a specific test
Description: Cerebral ischemia is produced in rats by occluding the four arteries that supply blood to the brain according to the following procedure. Male Wistar rats are anesthetized with Metofane and placed into a stereotaxic instrument. A longitudinal incision is made on the dorsal surface of the neck. The neck muscles are reflected to expose the dorsal surface of the spinal column. The two vertebral arteries are exposed where they pass through the first cervical vertebra. Both arteries are permanently occluded by the application of electrocautery. After coagulation of the vertebral arteries, the rat is removed from the stereotaxic instrument and the surgical wound is sutured. Two longitudinal incisions are then made on the ventral surface of the neck. The two common carotid arteries are exposed and dissected free from surrounding nerves and connective tissue. An atraumatic clasp, fabricated mainly from silicone rubber tubing, is placed around each carotid artery in a manner such that the vessel is not traumatized or occluded. An indwelling jugular cannula is implanted into each rat for drug delivery. The surgical wounds are then closed. […]
Damage in 4 sections of the dorsal hippocampus from each brain is assessed in order to obtain an accurate estimate of damage. An average damage score is calculated for each treatment group. […] The level of significance is determined using the Mann Whitney-U-test.

[4] = test system: formation of lipid peroxides; assay: Lipid Peroxidation Test; details: test protocol of Aruoma, et al. (1990)

Cc1cc2c(s1)Nc1ccccc1N=C2N1CCN(C)CC1 [olanzapine, 2-methyl-4-(4-methyl-1-piperazinyl)-10H-thieno[2,3-b] [1,5] benzodiazepine]
activity at the 5-HT1C receptor [1]: active | muscarinic cholinergic receptor activity [2]: has muscarinic cholinergic receptor activity | neuro-protective effect [3]: significant neuro-protective effect | inhibition of the formation of lipid peroxides [4]: inhibit the formation of lipid peroxides
